Measurements published in the SangsterLogP compilation.

assay: method code SF, from DOI: 10.1515/znb-1972-0211, PMID: 4401834; conditions: pH 7.0

Row | logD | SMILES
1 | 5.15 | COC(=O)/C(C#N)=N\Nc1cc(Cl)c(Cl)cc1Cl

assay: method code SF-AS, from DOI: 10.1515/znb-1972-0211, PMID: 4401834; conditions: pH 7.0

Row | SMILES | logD
2 | COC(=O)/C(C#N)=N\Nc1ccc(SC(F)(F)F)cc1 | 4.27
3 | COC(=O)C(C#N)=NNc1ccc(C(F)(F)F)cc1 | 3.79
4 | COC(=O)C(C#N)=NNc1ccccc1C(F)(F)F | 3.72
5 | COC(=O)C(C#N)=NNc1cccc(C(F)(F)F)c1 | 3.78
6 | CCOC(=O)C(C#N)=NNc1ccccc1Cl | 3.38
7 | COC(=O)/C(C#N)=N\Nc1cc(C(F)(F)F)cc(C(F)(F)F)c1 | 5.02
8 | COC(=O)C(C#N)=NNc1ccc2c(c1)OC(F)(F)C(F)(F)O2 | 4.86
9 | COC(=O)C(C#N)=NNc1cc(C#N)ccc1C#N | 2.81
10 | CC(C)(C)C(=O)C(C#N)=NNc1ccc2c(c1)OC(F)(F)C(F)(F)O2 | 4.96
11 | COC(=O)C(C#N)=NNc1ccccc1 | 2.59
12 | CCS(=O)(=O)c1ccc(C(F)(F)F)cc1NN=C(C#N)C(C)=O | 4.22
13 | CC(C)(C)C(=O)C(C#N)=NNc1ccc(Cl)cc1C(F)(F)F | 5.67
14 | CCOC(=O)C(C#N)=NNc1cc(C(F)(F)F)ccc1Cl | 4.45
15 | COC(=O)C(C#N)=NNc1cc(C(F)(F)F)ccc1Cl | 4.42
16 | COC(=O)C(C#N)=NNc1ccc(S(=O)(=O)C(F)(F)F)cc1 | 4.22
17 | CC(C)(C)C(=O)C(C#N)=NNc1cc(C(F)(F)F)cc(C(F)(F)F)c1 | 5.44

Continued, values first:

Row | logD | SMILES
18 | 4.28 | CC(=O)C(C#N)=NNc1ccc(Cl)cc1C
19 | 3.91 | CC(=O)C(C#N)=NNc1cccc(Cl)c1
20 | 4.01 | CC(=O)C(C#N)=NNc1ccccc1Cl
21 | 4.68 | CC(=O)C(C#N)=NNc1cc(Cl)cc(Cl)c1
22 | 3.94 | CCOC(=O)/C(C#N)=N\Nc1cccc(Cl)c1
23 | 4.62 | CC(C)(C)C(=O)C(C#N)=NNc1cccc(Cl)c1
24 | 3.56 | COC(=O)/C(C#N)=N\Nc1cccc(Cl)c1
25 | 5.03 | CCOC(=O)C(C#N)=NNc1cc(Cl)c(Cl)c(Cl)c1
26 | 5.04 | CC(=O)C(C#N)=NNc1ccc(SC(F)(F)F)cc1
27 | 4.56 | CC(=O)C(C#N)=NNc1ccc(Cl)c(Cl)c1
28 | 4.31 | Cc1cc(Cl)ccc1NN=C(C#N)C(=O)C(C)(C)C
29 | 5.31 | CC(=O)C(C#N)=NNc1ccc2c(c1)OC(F)(F)C(F)(F)O2
30 | 4.13 | CC(=O)C(C#N)=NNc1ccc(Cl)cc1
31 | 5.21 | CCOC(=O)/C(C#N)=N\Nc1cc(Cl)c(Cl)cc1Cl
32 | 5.22 | COC(=O)/C(C#N)=N\Nc1cc(Cl)c(Cl)c(Cl)c1
33 | 4.86 | CCOC(=O)/C(C#N)=N\Nc1ccc(Cl)c(C(F)(F)F)c1
34 | 4.5 | COC(=O)/C(C#N)=N\Nc1cc(Cl)cc(Cl)c1
35 | 5.86 | CC(C)(C)C(=O)C(C#N)=NNc1cc(Cl)c(Cl)cc1Cl
36 | 3.82 | CCOC(=O)/C(C#N)=N\Nc1cc(Cl)cc(Cl)c1
